According to patent US20070059299A1, “S-adenosyl methionine decarboxylase inhibition for the treatment of a herpes simplex virus infection” (Institut National de la Sante et de la Recherche Medicale …, priority 2002, published 2007):
Like-named read-outs stand apart in the source and are kept apart here.

Key:
[1] = test system: acyclovir-resistant reference strain DM21; test: Antiviral susceptibility testing by ELISA on HEp-2 cells, strain DM21; format: cell-based, HSV 1; details: for IC50: HEp-2 cells, ELISA, median of at least three assays, drugs diluted in μM, read-out: Susceptibility of strain DM21 (concentration causing 50% inhibition of viral replication, IC50), median
Procedure: (§1) Three HSV 1 reference strains were tested : SC16 (acyclovir-susceptible reference strain; (Hill et al., 1975)), DM21 (acyclovir-resistant reference strain derived from SC16; (Efstathiou et al., 1989)) and TP 2.5 (foscarnet-resistant reference strain derived from SC16; (Larder and Darby, 1985)). Antiviral assays were performed in duplicate on HEp-2 cells seeded in 96 wells microplates. Dilutions of virus and drugs were prepared in E-MEM without FCS. Cells were first treated for 24 hours with MGBG using a series of 6 twofold serial dilutions from 12.5 to 400 μM. Infection was then achieved with 5 tenfold dilutions of cell-associated virus (10^−1 to 10^−5). Each dilution was incubated with a series of 6 concentrations of each antiviral drug (from 12.5 to 400 μM in twofold dilutions for MGBG, from 0.16 to 500 μM in fivefold dilutions for acyclovir and from 31 to 1000 μM in twofold dilutions for foscarnet). […] After incubation at 36° C. with 5% CO2 for 24 hours post-infection, medium was replaced with freshly prepared dilutions of MGBG. Viral multiplication was checked 24 hours afterwards by an ELISA (Morfin et al., 1999), using a rabbit monoclonal anti-HSV 1 antibody (BO 114, Dako) and a protein A peroxidase-conjugated (BioRad). The substrate, 2,2′-azino-di(3-ethyl-benzthiazoline) sulfonic acid (ABTS) diluted in ABTS buffer (Boehringer, Mannheim), was added to each well. After 30 min at room temperature, the plates were briefly agitated and optical densities were read at 405 nm with a multichannel spectrophotomoter (Titertek-Multiskan). Optical density values were used with the Biolise program (Life Sciences International) to calculate the concentration of the drug causing a 50% inhibition of viral replication (IC50) by logistic regression analysis.
The capacity of MGBG to preclude infection of three HSV-1 acyclovir and/or foscarnet resistant strains was tested. The reference strains used in this study were the SC16 acyclovir-susceptible reference strain, the DM21 acyclovir-resistant reference strain derived from SC16 and the TP 2.5 foscarnet-resistant reference strain derived from SC16 (Efstathiou et al., 1989; Hill et al., 1975; Larder and Darby, 1985). In each experiment, dose response curves were constructed for […], for acyclovir, and for MGBG. The ED values were determined.

[2] = test system: foscarnet-resistant reference strain TP 2.5; test: Antiviral susceptibility testing by ELISA on HEp-2 cells, strain TP 2.5; format: cell-based, HSV 1; details: median of at least three assays, drugs diluted in μM, read-out: Susceptibility of strain TP2.5 (concentration causing 50% inhibition of viral replication, IC50), median
Procedure: as §1
(§2) The capacity of MGBG to preclude infection of three HSV-1 acyclovir and/or foscarnet resistant strains was tested. […] The ED values were determined.

[3] = test system: acyclovir-susceptible reference strain SC16; test: Antiviral susceptibility testing by ELISA on HEp-2 cells, strain SC16; format: cell-based, HSV 1
Procedure: as §1, §2

[4] = test system: HSV; test: HSV replication in cellulo; format: cell-based; details: read-out: HSV inhibition in cellulo IC50
Procedure: as §1

[5] = target: T1, SAMDC (Rattus norvegicus, UniProt P17708); test: SAMDC inhibition in vitro; format: biochemical; details: inhibitor at 0.1 μM
T1 construct: according to the procedure described in Pegg A E, Poso H, S-adenosylmethionine decarboxylase (rat liver), Methods Enzymol; 1983;94: 234-239; from tissue
T1 sequence (P17708 68-333 limits assumed): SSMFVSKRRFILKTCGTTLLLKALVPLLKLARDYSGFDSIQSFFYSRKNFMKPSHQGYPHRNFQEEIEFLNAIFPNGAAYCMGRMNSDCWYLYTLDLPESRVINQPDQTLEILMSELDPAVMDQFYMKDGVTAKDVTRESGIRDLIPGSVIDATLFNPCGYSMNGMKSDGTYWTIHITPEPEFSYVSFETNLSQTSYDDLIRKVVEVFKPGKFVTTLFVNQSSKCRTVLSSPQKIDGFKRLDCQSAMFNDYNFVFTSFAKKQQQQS
T1 sequence (P17708 1-67 limits assumed): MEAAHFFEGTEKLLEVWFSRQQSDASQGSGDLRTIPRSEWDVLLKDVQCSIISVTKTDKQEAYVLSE
Description: The results of SAMDC inhibition in vitro and of HSV replications in cellulo for MGBG and Compounds (I) to (III) disclosed above are reported in the table below.

[6] = test system: HSV-1 proteins, mRNA and DNA; test: Levels of viral proteins (Western blot), mRNA and DNA (slot blot) in infected HEp2 cells; format: cell-based; details: 6 h pre-treatment with 100 μM MGBG, then MGBG and 50 μM spermine, 24 h p.i.
Procedure: Total RNA and DNA from control mock-infected and infected HEp2 cells were purified using Qiagen RNA/DNA kit. RNA were submitted to DNAse/RNAse free digestion (1.5 unit/μg RNA) and DNA were submitted to RNAse A digestion (10 units/μg). Quantitation of SAMDC mRNA, of viral mRNAs and viral DNA present in each sample was determined by slot blot analysis using the 1250 bp PstI/PvuII fragment of pSAMr1 plasmid (Pajunen et al., 1988). The 746 bp SalI-EcoNI fragment of pSG28 and the 1308 bp MluI fragment of pSG124 plasmids (Goldin et al., 1981) were labelled with [^32P] and used as probes to detect the immediate early ICP27 and the early UL42 mRNAs respectively. Us11 late mRNA was detected with [^32P]-labelled probe composed of the 230 bp XhoI fragment of pHSV-Us12 plasmid (Diaz et al., 1996). Viral DNA was detected using the ICP27 specific DNA probe.
Mock-infected and HSV-1-infected HEp2 cells were washed three times with ice cold phosphate-buffered saline (PBS) (130 mM NaCl, 4 mM Na2HPO4.2H2O, 1.5 mM KH2PO4), scrapped into PBS, and collected by centrifugation at 500×g. Cells were resuspended in Laemmli buffer (Laemmli, 1970). Proteins were resolved by polyacrylamide gel electrophoresis and transferred by electroblotting onto a polyvinylidene difluoride membrane (Immobilon-P; Millipore). Viral proteins were analysed by Western blots (10 μg aliquots) using a 50 fold dilution of either a rabbit polyclonal anti-ICP27 antibody, or a rabbit polyclonal anti-Us11 antibody (Diaz et al., 1993), or a mouse monoclonal anti-UL42 antibody diluted 50 fold.
Cells were pre-treated with 10 to 200 μM of MGBG, then infected with HSV-1 in the presence of the same concentrations of MGBG. Proteins, RNA and DNA were extracted from cells infected for 24 h. Viral proteins were detected by Western blot using specific antibodies, whereas viral mRNA and DNA levels were assayed by slot blot analysis.

[7] = test system: HSV-1 macroplaque strain (MP); format: cell-based; details: 50 μM spermine added with 100 μM MGBG and virus, or 2 h later
Procedure: HEp2 cells were grown as monolayers in Eagle's minimum essential medium (E-MEM) supplemented or not with 5% heat-inactivated foetal calf serum (FCS) and supplemented with 100 U/ml penicillin and 100 U/ml streptomycin. The cells were maintained at 37° C. under 5% CO2. The HSV-1 macroplaque strain (MP), obtained from B. Jacquemont (Lyon, France), was a gift of B. Roizman (Chicago, Ill., U.S.A.), and was used throughout this study. Viruses were grown in HEp2 cells.
HEp2 cells were grown in 6-well plates (˜10^6 cells/well) and infected just before confluence with a multiplicity of infection (m.o.i.) of 0.5 plaque-forming units (PFU) per cell in E-MEM in absence of FCS, except for some experiments. After adsorption of the virus for 1 h at 33° C. under 5% CO2, the medium containing the virus suspension was removed and the cells were washed with E-MEM, then incubated in E-MEM without FCS at 37° C. for different periods of times until harvest. Times post-infection (p.i.) were calculated from the time of addition of the virus suspension. HEp2 cells were exposed to MGBG treatment for different times. When cells were pre-treated with MGBG prior infection, MGBG was added to cell medium 6 h or 24 h prior infection until harvest. In non pre-treated cells, MGBG was added simultaneously with virus suspension, or 2 h, 4 h or 6 h latter. When cells were treated for more than 24 h, medium was replaced every 24 h with fresh medium containing the same concentration of MGBG.
Accordingly, the effect of inactivation of enzymes involved in polyamine biosynthesis upon HSV-1 infection inhibition was assessed. The HSV-1 MP strain was used throughout this study for its ability to induce the formation of large syncytia from infected cells. Therefore, it was possible to easily and quickly investigate the inhibition of viral replication at the level of syncytia formation.
To investigate the effect of the concentration of MGBG on viral infection, HEp2 cells were infected with 0.5 PFU of HSV-1 per cell in FCS free medium in which 10 μM to 300 μM MGBG was added from the adsorption step of the virus until the end of the experiment. After 24 h of infection, the formation of syncytia was observed, and the number of syncytia was estimated by counting using the optical microscope.
HEp2 cell were pre-treated with MGBG by incubation in FCS free medium containing 10 to 300 μM MGBG 6h to 24 h before infection. Then cells were infected as described above and MGBG was maintained in the medium until the end of the experiment.

SMILES | IC50 [1] [µM] | IC50 [2] [µM] | IC50 [4] [µM] | % inhibition in vitro (0.1 μM) [5] [%] | also measured
Nc1nc2c(ncn2COCCO)c(=O)[nH]1 [Acyclovir, acyclovir] | > 500 | 215 | – | – | IC50 ([3]; HEp-2 cells, ELISA, median of at least three assays, drugs diluted in μM, read-out: Susceptibility of strain SC16 (concentration causing 50% inhibition of viral replication, IC50), median): 28 µM
N=C(N)c1ccc(/N=N/Nc2ccc(C(=N)N)cc2)cc1 [Compound (I), Berenil] | – | – | 70 | 47 | –
N=C(N)c1cccc2c1CC/C2=N\N=C(N)N [Compound (II), SAM486A] | – | – | 47 | 97 | –
CC(NNC(=N)N)c1cccc(C(=N)N)n1 (centres unmarked) [Compound (III)] | – | – | – | – | inhibition at 0.1 µM [5]: 97%
O=C(O)P(=O)(O)O [Foscarnet, foscarnet] | 148 | > 1000 | – | – | decreased IC50 on acyclovir-resistant strains versus acyclovir-susceptible strain ([1]; compared with SC16): 34%; IC50 ([3]; HEp-2, read-out: Susceptibility of strain SC16 (concentration causing 50% inhibition of viral replication, IC50), median): 224 µM
NCCCNCCCCNCCCN [spermine] | – | – | – | – | MGBG-induced viral inhibition in the presence of exogenous spermine [6]: abolished the MGBG-induced viral inhibition; MGBG inhibition of viral infection on addition of exogenous spermine [7]: totally prevented
